Reference: patent publication US9693997B2, “Antiviral compounds” (priority 2013, dated 2017)
Counter-ions that a name gives are not always drawn.

Key:
[1] = system: pseudotyped VSV G particles (VSVpp) in Huh7-high CD81 cells; test: microbe, parasite or virus in culture; type: cell-based, vesicular stomatitis virus; settings: Vesicular stomatitis virus, 72 h, read-out: VSVpp (EC50, μM)
[2] = system: Pseudotyped HCV GT1b particles (HCVpp), entry into Huh7-high CD81 cells; test: microbe, parasite or virus in culture; type: cell-based, HCV GT1b Con1 strain; settings: Hepatitis C virus, GT1B, 72 h, read-out: HCVpp GT-1b (EC50, μM)

Row | SMILES | EC50 [1] [µM] | EC50 [2] [µM]
1 | C[C@@H](NS(C)(=O)=O)c1ccc(-c2c(Cl)cc(Nc3n[nH]c(N)n3)cc2C(F)(F)F)cc1 [Compound 24, N—{(R)-1-[4′-(5-Amino-1H-[1,2,4]triazol-3-ylamino)-2′-chloro-6′-trifluoromethyl-biphenyl-4-yl]-ethyl}-methanesulfonamide] | > 10 | 0.058
2 | CN(C)C(=O)c1ccc(-c2c(F)cc(Nc3nc(N)n[nH]3)cc2C(F)(F)F)cc1 [Compound 85, 4′-(5-Amino-2H-[1,2,4]-triazol-3-ylamino)-6′-fluoro-2′-trifluoromethyl-biphenyl-4-carboxylic acid dimethylamide] | > 10 | 0.568
3 | CC1(C)OCC(COc2ccc(-c3c(Cl)cc(Nc4n[nH]c(N)n4)cc3Cl)cc2)O1 (stereo not drawn) [Compound 274, N*3*-[2,6-Dichloro-4′-(2,2-dimethyl-[1,3]dioxolan-4-ylmethoxy)-biphenyl-4-yl]-1H-[1,2,4]triazole-3,5-diamine] | 34.1 | 0.121
4 | CC(C)(C)Oc1ccc(-c2c(Cl)cc(Nc3n[nH]c(N)n3)cc2C(F)(F)F)cc1 [Compound 230, N*3*-(4′-tert-Butoxy-6-chloro-2-trifluoromethyl-biphenyl-4-yl)-1H-[1,2,4]triazole-3,5-diamine] | > 10 | 0.332
5 | CC(C)(NS(=O)(=O)c1ccc(-c2c(Cl)cc(Nc3n[nH]c(N)n3)cc2C(F)(F)F)cc1)C(F)(F)F [Compound 165, 4′-(5-amino-1H-1,2,4-triazol-3-ylamino)-2′-chloro-N-(1,1,1-trifluoro-2-methylpropan-2-yl)-6′-(trifluoromethyl)biphenyl-4-sulfonamide] | > 10 | 0.009
6 | CS(=O)(=O)c1ccc(-c2ccc(Nc3n[nH]c(N)n3)cc2C(F)(F)F)cc1 [Compound 90, N3-(4′-(methylsulfonyl)-2-(trifluoromethyl)biphenyl-4-yl)-1H-1,2,4-triazole-3,5-diamine] | 15.7 | 0.875
7 | CN(C(C)(C)C)S(=O)(=O)c1cccc(-c2c(Cl)cc(Nc3n[nH]c(N)n3)cc2C(F)(F)F)c1 [Compound 196, 4′-(5-amino-1H-1,2,4-triazol-3-ylamino)-N-tert-butyl-2′-chloro-N-methyl-6′-(trifluoromethyl)biphenyl-3-sulfonamide] | > 10 | 0.126
8 | COc1ccc(-c2c(Cl)cc(Nc3n[nH]c(N)n3)cc2C(F)(F)F)cc1S(=O)(=O)NC1CCN(C(=O)OC(C)(C)C)CC1 [Compound 221, 4-[4′-(5-Amino-1H-[1,2,4]triazol-3-ylamino)-6′-chloro-4-methoxy-2′-trifluoromethyl-biphenyl-3-sulfonylamino]-piperidine-1-carboxylic acid tert-butyl ester] | 4.55 | 0.003
9 | Nc1nc(Nc2cc(Cl)c(-c3cccc(S(=O)(=O)N4CCCC4)c3)c(C(F)(F)F)c2)n[nH]1 [Compound 192, N3-(2-chloro-3′-(pyrrolidin-1-ylsulfonyl)-6-(trifluoromethyl)biphenyl-4-yl)-1H-1,2,4-triazole-3,5-diamine] | 17.2 | 0.084
10 | CNS(=O)(=O)c1cccc(-c2c(Cl)cc(Nc3n[nH]c(N)n3)cc2Cl)c1 [Compound 119, 4′-(5-Amino-1H-[1,2,4]triazol-3-ylamino)-2′,6′-dichloro-biphenyl-3-sulfonic acid methylamide] | 3.94 | 0.046
11 | Nc1nc(Nc2cc(Cl)c(-c3ccc(S(=O)(=O)C4CCCN(CCC(F)(F)F)C4)cc3)c(C(F)(F)F)c2)n[nH]1 (stereo not drawn) [Compound 11, N*3*-{2-Chloro-6-trifluoromethyl-4′-[1-(3,3,3-trifluoro-propyl)-piperidine-3-sulfonyl]-biphenyl-4-yl}-1H-[1,2,4]triazole-3,5-diamine; hydrochloride] | 6.78 | 0.017
12 | Nc1nc(Nc2cc(Cl)c(-c3ccc4[nH]c(=O)[nH]c4c3)c(Cl)c2)n[nH]1 [Compound 255] | > 10 | 0.42
